Assay results taken from patent US12523664B2, “Sensor chip and methods thereof” (NATIONAL UNIVERSITY OF SINGAPORE, priority 2019, dated 2026).
“Also recorded” adds a separate entry of the source.

Biological target: amylogenic protein (Homo sapiens, UniProt P05067)
Assay: Protein aggregation with or without inhibitor, aggregate size by dynamic light scattering
Assay type: biochemical
Conditions: 10 μM inhibitor added before 1 h incubation with agitation
Protocol: Aggregate size determination. Hydrodynamic diameter of amylogenic protein and BSA aggregates were determined by dynamic light scattering analysis (Zetasizer Nano ZSP, Malvern). 3×14 measurement runs were performed at 4° C. Z-average diameter and polydispersity were analyzed. For every measurement, the auto-correlation function and polydispersity index were monitored to ensure sample quality for size determination.
Protein aggregation. Lyophilized amylogenic protein was resuspended in NaOH (60 mM, 4° C.), sonicated, and pH adjusted to pH 7.4 in PBS. The protein was immediately filtered through a 0.2-μm membrane filter (Millipore) and the filtrate was used as the small initial aggregates. For preparation of the bigger aggregates, the protein was treated as described above and incubated with agitation for 1 h to induce further aggregation. […] Aggregate size determination was performed at the end of the incubation.

amylogenic protein, sequence (P05067 672-713 limits assumed): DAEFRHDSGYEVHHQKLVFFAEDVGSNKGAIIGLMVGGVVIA

CN(C)c1ccc2nc3ccc(=[N+](C)C)cc-3sc2c1 [inhibitor, methylene blue] was tested, and the “increase in size as a result of spontaneous protein aggregation” value was “reduced spontaneous protein aggregation; also recorded: minimal”.
